Test results reported in ChEMBL document CHEMBL4715760, “Balancing potency, metabolic stability and permeability in pyrrolopyrimidine-based EGFR inhibitors” (Eur J Med Chem, 2016).
Values after ≈ are worked out from the molar mass of the structure shown.

Columns and labels:
[1] = molecular target: T1, Epidermal growth factor receptor (Homo sapiens, UniProt P00533); settings: dose 100.0 nM
Description: Inhibition of human EGFR at 100 nM using poly[Glu:Tyr] (4:1) as substrate in presence of [gamma33P]ATP by radiometric HotSpot assay relative to control

[2] = molecular target: T1, Epidermal growth factor receptor; test: Inhibition of human EGFR using poly[Glu:Tyr] (4:1) as substrate in presence of [gamma33P]ATP by radiometric HotSpot assay
[3] = Metabolic stability in pooled human liver microsomes assessed as Clearance at 3 uM measured up to 45 mins in presence of NADPH by LC-MS/MS analysis; type: ADME, Microsome; settings: for microsomal CLint at 3 µM: pooled liver microsomes, read-out: CLH
[4] = Apparent permeability from basolateral to apical side in human Caco2 cells at 10 uM measured for 120 mins by LC-MS/MS analysis; settings: for Papp: caco-2, 2 h, 10 µM; for Papp B→A at 2 h, 10 µM: Caco-2
[5] = Metabolic stability in pooled human liver microsomes assessed as half life at 3 uM measured up to 45 mins in presence of NADPH by LC-MS/MS analysis; type: ADME, Microsome; settings: for half-life at 3 µM: pooled liver microsomes
[6] = Protein binding in plasma (unknown origin) assessed as unbound fraction at 5 uM by LC-MS/MS based equilibrium dialysis analysis
[7] = molecular target: Voltage-gated inwardly rectifying potassium channel KCNH2 (Homo sapiens, UniProt Q12809); test: Inhibition of human ERG expressed in CHO cells at -80 mV holding potential by IonWorks patch-clamp electrophysiology assay
Voltage-gated inwardly rectifying potassium channel KCNH2, sequence (Q12809 whole entry): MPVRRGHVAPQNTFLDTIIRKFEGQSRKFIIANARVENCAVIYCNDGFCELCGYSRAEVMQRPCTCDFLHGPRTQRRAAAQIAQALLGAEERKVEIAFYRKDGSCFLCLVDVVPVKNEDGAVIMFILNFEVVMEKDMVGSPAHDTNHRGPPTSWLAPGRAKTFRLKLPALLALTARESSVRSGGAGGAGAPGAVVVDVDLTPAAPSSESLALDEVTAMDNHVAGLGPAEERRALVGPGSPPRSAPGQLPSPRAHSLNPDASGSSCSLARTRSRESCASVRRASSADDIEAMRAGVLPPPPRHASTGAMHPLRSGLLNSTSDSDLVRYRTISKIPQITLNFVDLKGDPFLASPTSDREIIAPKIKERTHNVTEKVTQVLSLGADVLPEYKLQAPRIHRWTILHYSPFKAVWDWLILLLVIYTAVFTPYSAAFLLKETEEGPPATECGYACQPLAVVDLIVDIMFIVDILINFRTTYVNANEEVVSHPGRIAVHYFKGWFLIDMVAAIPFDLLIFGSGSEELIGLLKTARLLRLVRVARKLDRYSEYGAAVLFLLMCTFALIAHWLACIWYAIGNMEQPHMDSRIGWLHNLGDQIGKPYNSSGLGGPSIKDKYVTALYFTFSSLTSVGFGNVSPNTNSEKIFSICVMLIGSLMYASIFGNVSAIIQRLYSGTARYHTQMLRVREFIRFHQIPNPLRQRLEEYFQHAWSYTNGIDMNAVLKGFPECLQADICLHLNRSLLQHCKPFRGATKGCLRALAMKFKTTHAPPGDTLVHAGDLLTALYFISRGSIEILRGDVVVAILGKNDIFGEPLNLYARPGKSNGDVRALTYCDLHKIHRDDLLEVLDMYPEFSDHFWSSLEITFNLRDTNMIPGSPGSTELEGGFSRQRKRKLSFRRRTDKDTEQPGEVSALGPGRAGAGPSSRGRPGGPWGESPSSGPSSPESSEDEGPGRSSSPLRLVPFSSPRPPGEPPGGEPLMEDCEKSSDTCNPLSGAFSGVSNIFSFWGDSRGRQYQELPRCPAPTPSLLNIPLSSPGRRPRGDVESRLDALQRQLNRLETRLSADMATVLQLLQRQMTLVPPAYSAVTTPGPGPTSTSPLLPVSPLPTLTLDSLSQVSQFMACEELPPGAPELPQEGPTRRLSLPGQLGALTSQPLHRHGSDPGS

physchem = settings: phosphate buffered saline, pH 7.4
[8] = Apparent permeability from apical to basolateral side in human Caco2 cells at 10 uM measured for 120 mins by LC-MS/MS analysis; settings: for Papp: caco-2, 2 h, 10 µM; for Papp A→B at 2 h, 10 µM: Caco-2
[9] = Efflux ratio of apparent permeability across basolateral to apical side over apical to basolateral side in human Caco2 cells at 10 uM measured for 120 mins by LC-MS/MS analysis
[10] = molecular target: T1, Epidermal growth factor receptor; test: Inhibition of EGFR (unknown origin) using Tyr 04 peptide as substrate incubated for 1 hr by Z'-LYTE assay
[11] = molecular target: T1, Epidermal growth factor receptor; settings: dose 100.0 nM, time 1.0 hrs
BaF3 = test: Antiproliferative activity against mouse Ba/F3 cells expressing EGFR-L858R mutant assessed as inhibition of cell growth incubated for 48 hrs by XTT assay; type: functional, cell-based; settings: BaF3, 48 h
A-431 = test: Antiproliferative activity against human A431 cells; type: functional, cell-based

T1 sequence (P00533 whole entry): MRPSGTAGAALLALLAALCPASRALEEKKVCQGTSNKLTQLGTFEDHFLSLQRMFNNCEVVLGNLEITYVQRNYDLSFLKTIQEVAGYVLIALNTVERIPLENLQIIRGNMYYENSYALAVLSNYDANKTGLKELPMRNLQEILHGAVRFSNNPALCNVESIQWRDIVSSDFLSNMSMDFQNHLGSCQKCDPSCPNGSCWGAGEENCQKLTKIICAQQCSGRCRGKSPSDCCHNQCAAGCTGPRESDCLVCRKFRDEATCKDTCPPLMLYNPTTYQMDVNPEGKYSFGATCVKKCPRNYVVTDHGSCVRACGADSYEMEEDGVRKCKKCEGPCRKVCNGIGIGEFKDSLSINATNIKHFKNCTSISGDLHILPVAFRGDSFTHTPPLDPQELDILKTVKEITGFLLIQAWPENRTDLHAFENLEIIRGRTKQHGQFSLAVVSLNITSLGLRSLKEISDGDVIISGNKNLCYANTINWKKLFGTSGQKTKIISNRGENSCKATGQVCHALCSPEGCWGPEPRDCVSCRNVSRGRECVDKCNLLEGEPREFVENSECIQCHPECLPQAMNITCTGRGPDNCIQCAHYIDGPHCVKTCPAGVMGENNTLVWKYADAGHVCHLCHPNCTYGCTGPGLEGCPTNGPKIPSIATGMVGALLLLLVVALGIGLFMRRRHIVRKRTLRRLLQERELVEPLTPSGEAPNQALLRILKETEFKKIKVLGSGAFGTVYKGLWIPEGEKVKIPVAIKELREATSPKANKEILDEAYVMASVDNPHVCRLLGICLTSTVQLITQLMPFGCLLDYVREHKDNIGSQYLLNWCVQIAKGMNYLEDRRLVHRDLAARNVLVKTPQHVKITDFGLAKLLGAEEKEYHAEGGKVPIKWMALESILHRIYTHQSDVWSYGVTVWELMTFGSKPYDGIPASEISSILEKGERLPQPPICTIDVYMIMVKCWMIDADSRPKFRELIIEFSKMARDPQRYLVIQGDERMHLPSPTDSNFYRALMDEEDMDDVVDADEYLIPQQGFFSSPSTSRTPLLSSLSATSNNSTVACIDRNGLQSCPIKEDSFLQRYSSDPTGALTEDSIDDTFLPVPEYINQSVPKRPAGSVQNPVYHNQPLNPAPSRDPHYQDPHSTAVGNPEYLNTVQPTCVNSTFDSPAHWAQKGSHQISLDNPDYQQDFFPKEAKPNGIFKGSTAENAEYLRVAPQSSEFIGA

Row | Structure (SMILES) | inhibition [1] | IC50 [2] | also measured
1 | COC[C@@H](Nc1ncnc2[nH]c(-c3ccccc3OC(F)F)cc12)c1ccccc1 | 96% | 1.3 nM | 
2 | OC[C@@H](Nc1ncnc2[nH]c(-c3cccnc3)cc12)c1ccccc1 | 92% | 2.2 nM | 
3 | COc1cc(CO)ccc1-c1cc2c(N[C@H](CO)c3ccccc3)ncnc2[nH]1 |  |  | microsomal CLint at 3 µM [3]: 12.6 µL/min/mg; Papp [4]: 50.84 10^-6 cm/s; half-life at 3 µM [5]: 1.83 h; fraction unbound at 5 µM [6]: 0.08; IC50 [7]: > 25000 nM; solubility kinetic at 2 h (physchem): > 100 µM; Papp [8]: 2.98 10^-6 cm/s
4 | COc1cc(NC(C)=O)ccc1-c1cc2c(N[C@H](CO)c3ccccc3)ncnc2[nH]1 | 98% | 0.8 nM | 
5 | C[C@@H](Nc1ncnc2[nH]c(-c3cccc(C(N)=O)c3)cc12)c1ccccc1 | 95% | 1.4 nM | 
6 | OCc1cc(-c2cc3c(N[C@H](CO)c4ccccc4)ncnc3[nH]2)ccc1F | 96% | 1.6 nM | 
7 | C[C@@H](Nc1ncnc2[nH]c(-c3ccc(C(N)=O)cc3)cc12)c1ccccc1 | 97% | 0.8 nM | 
8 | CS(=O)(=O)Nc1ccc(-c2cc3c(N[C@H](CO)c4ccccc4)ncnc3[nH]2)cc1 |  |  | microsomal CLint at 3 µM [3]: 10.2 µL/min/mg; Papp B→A at 2 h, 10 µM [4]: 29.2 ×10⁻⁶ cm/s; half-life at 3 µM [5]: 2.27 h; solubility kinetic at 2 h (physchem): > 100 µM; Papp A→B at 2 h, 10 µM [8]: 0.02 ×10⁻⁶ cm/s
9 | NC(=O)Cc1cccc(-c2cc3c(N[C@H](CO)c4ccccc4)ncnc3[nH]2)c1 | 100% | 0.7 nM | 
10 | CN(C)CCNCc1cc(-c2cc3c(N[C@H](CO)c4ccccc4)ncnc3[nH]2)ccc1F | 96% | 1.2 nM | efflux ratio at 2 h, 10 µM ([9]; Caco-2): 5.9; CLH ([3]; microsomes, 0.75 h, 3 µM): 2.79 µL/min/mg; Papp B→A at 2 h, 10 µM [4]: 9.6 ×10⁻⁶ cm/s; t1/2 ([5]; microsomes, 0.75 h, 3 µM): 1.72 h; solubility kinetic at 2 h (physchem): > 100 µM; Papp A→B at 2 h, 10 µM [8]: 1.6 ×10⁻⁶ cm/s
11 | OCc1ccc(-c2cc3c(N[C@H](CO)c4ccccc4)ncnc3[nH]2)cc1 |  |  | IC50 [10]: 0.2 nM; inhibition [11]: 98%; microsomal CLint at 3 µM [3]: 5.21 µL/min/mg; half-life at 3 µM [5]: 4.43 h; fraction unbound at 5 µM [6]: 0.11
12 | CS(=O)(=O)c1ccc(-c2cc3c(N[C@H](CO)c4ccccc4)ncnc3[nH]2)cc1 | 96% | 0.8 nM | 
13 | OC[C@@H](Nc1ncnc2[nH]c(-c3ccncc3)cc12)c1ccccc1 | 94% | 2 nM | 
14 | COc1cc(NS(C)(=O)=O)ccc1-c1cc2c(N[C@H](C)c3ccccc3)ncnc2[nH]1 | 100% | 0.7 nM | 
15 | OCc1ccc(-c2cc3c(N[C@H](CO)c4ccccc4)ncnc3[nH]2)cc1F | 97% | 0.6 nM | IC50 (BaF3): 158 nM; IC50 (A-431): 5800 nM
16 | C[C@@H](Nc1ncnc2[nH]c(-c3ccccc3OC(F)F)cc12)c1ccccc1 | 98% | 0.8 nM | microsomal CLint at 3 µM [3]: 56.2 µL/min/mg; half-life at 3 µM [5]: 0.412 h
17 | CC(=O)Nc1ccc(-c2cc3c(N[C@H](C)c4ccccc4)ncnc3[nH]2)cc1 | 97% | 0.7 nM | 
18 | Cn1c(-c2ccccc2)cc2c(N[C@H](CO)c3ccccc3)ncnc21 | 20% | 900 nM | 
19 | CC(C)Oc1ccccc1-c1cc2c(N[C@H](C)c3ccccc3)ncnc2[nH]1 | 98% | 0.6 nM | 
20 | C[C@@H](Nc1ncnc2[nH]c(-c3ccc(S(N)(=O)=O)cc3)cc12)c1ccccc1 | 96% | 0.7 nM | 
21 | C[C@@H](Nc1ncnc2[nH]c(-c3ccccc3OC(F)(F)F)cc12)c1ccccc1 | 92% | 4.3 nM | 
22 | C[C@@H](Nc1ncnc2[nH]c(-c3ccncc3)cc12)c1ccccc1 | 97% | 0.6 nM | 

Continued, in another order:

Row | inhibition [1] | IC50 [2] | Structure (SMILES) | also measured
23 | 97% | 0.6 nM | COc1cccc(OC)c1-c1cc2c(N[C@H](C)c3ccccc3)ncnc2[nH]1 | 
24 | 100% | 0.3 nM | COc1cc(NS(C)(=O)=O)ccc1-c1cc2c(N[C@H](CO)c3ccccc3)ncnc2[nH]1 | 
25 | 98% | 0.3 nM | C[C@@H](Nc1ncnc2[nH]c(-c3ccc(NS(C)(=O)=O)cc3)cc12)c1ccccc1 | Ratio ([9]; caco-2, 2 h, 10 µM): 23.7; microsomal CLint at 3 µM [3]: 21.2 µL/min/mg; Papp [4]: 26.9 10^-6 cm/s; half-life at 3 µM [5]: 1.09 h; solubility kinetic at 2 h (physchem): 37.5 µM (≈ 15.3 µg/mL); Papp [8]: 0.03 10^-6 cm/s
26 | 97% | 0.6 nM | COc1cnccc1-c1cc2c(N[C@H](CO)c3ccccc3)ncnc2[nH]1 | 
27 | 99% | 0.1 nM | COc1cc(CNCCN2CCCCC2)ccc1-c1cc2c(N[C@H](CO)c3ccccc3)ncnc2[nH]1 | 
28 | 98% | 0.5 nM | COC[C@@H](Nc1ncnc2[nH]c(-c3ccc(CO)cc3OC)cc12)c1ccccc1 | 
29 | 99% | 0.1 nM | COc1cc(CNCCN(C)C)ccc1-c1cc2c(N[C@H](C)c3ccccc3)ncnc2[nH]1 | IC50 (BaF3): 90 nM; IC50 (A-431): 5000 nM
30 | 99% | 0.3 nM | CCOc1ccccc1-c1cc2c(N[C@H](C)c3ccccc3)ncnc2[nH]1 | 
31 | 100% | 0.1 nM | CCOc1ccccc1-c1cc2c(N[C@H](CCO)c3ccccc3)ncnc2[nH]1 | IC50 (BaF3): 99 nM; IC50 (A-431): 4900 nM
32 | 100% | 0.4 nM | COc1cc(CNCCS(C)(=O)=O)ccc1-c1cc2c(N[C@H](CO)c3ccccc3)ncnc2[nH]1 | 
33 | 100% | 0.3 nM | COc1cc(CNCCN(C)C)ccc1-c1cc2c(N[C@H](CO)c3ccccc3)ncnc2[nH]1 | 
34 | 97% | 0.1 nM | COc1cc(CNCCN2CCOCC2)ccc1-c1cc2c(N[C@H](CO)c3ccccc3)ncnc2[nH]1 | 
35 | 98% | 0.4 nM | COc1cc(C(N)=O)ccc1-c1cc2c(N[C@H](C)c3ccccc3)ncnc2[nH]1 | 
36 | 99% | 0.1 nM | COc1cc(CN(C)CCN(C)C)ccc1-c1cc2c(N[C@H](CO)c3ccccc3)ncnc2[nH]1 | IC50 (BaF3): 77 nM; IC50 (A-431): > 10000 nM
37 | 97% | 0.4 nM | C[C@@H](Nc1ncnc2[nH]c(-c3ccc(S(C)(=O)=O)cc3)cc12)c1ccccc1 | 
38 | 98% | 0.1 nM | COc1cc(CNCCN2CCNCC2)ccc1-c1cc2c(N[C@H](CO)c3ccccc3)ncnc2[nH]1 | IC50 (BaF3): 396 nM; IC50 (A-431): 6200 nM
39 |  | 0.4 nM | [2H]C([2H])([2H])Oc1ccccc1-c1cc2c(N[C@H](CO)c3ccccc3)ncnc2[nH]1 | 
40 | 99% | 0.5 nM | COc1cc(C(N)=O)ccc1-c1cc2c(N[C@H](CO)c3ccccc3)ncnc2[nH]1 | 
41 | 97% | 0.3 nM | CN(C)CCNCc1ccc(-c2cc3c(N[C@H](CO)c4ccccc4)ncnc3[nH]2)cc1 | 
